Experimental data as given in patent US5869494A, “Uses for barbituric acid analogs” (priority 1997, dated 1999).
Like-named read-outs stand apart in the source and are kept apart here.

Columns and labels:
[1] = tested on: Daudi human lymphoma cells; experiment: Cytotoxicity for lymphoma cells (Daudi); assay type: cell-based; conditions: for cytotoxicity at 50 µg/mL / cytotoxicity at 100 µg/mL / cytotoxicity at 150 µg/mL: Homo sapiens, Daudi; for cytotoxicity at 50 µg/mL: 50 μg/ml; for cytotoxicity at 100 µg/mL: 100 μg/ml; for cytotoxicity at 150 µg/mL: 150 μg/ml, read-out: % Cytotoxicity
Description: (§1) In the following examples, tumor cells were treated with varying concentrations of compounds C1, C2, C4 or C5 dissolved in absolute ethanol. To limit any non-specific toxicity, the final concentration of ethanol was not allowed to exceed 0.5%. Stock concentrations of 5 mg/ml or 20 mg/ml were used. Viability of cells was determined in some studies by the trypan blue dye exclusion method. In other studies, cell viability/proliferation activity was determined by MTT assay by using a kit obtained from Promega, (Promega Corp., Madison, Wis. 53711). For this assay, a 100 μl cell suspension containing 5-10^3 monolayer cells or 1×10^5 suspension cells was placed in the wells of a 96-well microtiter plate. After overnight incubation, cells were treated with different concentrations of the test compound. Control wells received vehicle only. After 24, 48, 72 or 96 h of incubation, 50 μl of MTT dye solution was added. After 4 h of incubation at 37° C., 100 μl of solubilization/stop solution was added. After another h of incubation, cells were mixed using a multi-channel pipet and the absorption of the dye color was recorded at 570 nm using a plate reading absorption spectrophotometer.
The viability of the cells was
Compounds C4 and C5 were also tested for toxicity against human lymphoma Daudi cells.

[2] = tested on: L1210 mouse leukemia cells; experiment: Cytotoxicity for leukemia cells (L1210); assay type: cell-based; conditions: for cytotoxicity at 50 µg/mL / cytotoxicity at 110 µg/mL / cytotoxicity at 150 µg/mL: Mus musculus; for cytotoxicity at 50 µg/mL: 50 μg/ml; for cytotoxicity at 110 µg/mL: 110 μg/ml; for cytotoxicity at 150 µg/mL: 150 μg/ml
Description: as §1
The viability of the cells was […]

[3] = tested on: MCF-7 human breast cancer cells; experiment: Cytotoxicity for breast cancer cell line MCF-7 (MTT assay); assay type: cell-based; conditions: read-out: Percent cell kill; for cytotoxicity at 50 µg/mL: 50 μg/ml; for cytotoxicity at 100 µg/mL: 100 μg/ml; for cytotoxicity at 150 µg/mL: 150 μg/ml
Description: as §1
(§2) After the incubation period, viability of the cells was determined by MTT assay (Promega Corp., Madison, Wis. 53711).

[4] = tested on: PC-3 human prostate cancer cells; experiment: Cytotoxicity for prostate cancer cell line PC-3 (MTT assay); assay type: cell-based; conditions: read-out: Percent cell kill; for cytotoxicity at 50 µg/mL: 50 μg/ml; for cytotoxicity at 100 µg/mL: 100 μg/ml; for cytotoxicity at 150 µg/mL: 150 μg/ml
Description: as §1, §2

MALME-3M = experiment: NCI tumor cell line screen (SRB assay); assay type: cell-based; conditions: Homo sapiens, read-out: PERCENT GROWTH
Description: (§3) The National Cancer Institute carried out the studies at the direction of the present inventor.
(§4) In the tests, the National Cancer Institute used the SRB (sulforhodamine B) assay as described by Skehan et al., (Journal of the National Cancer Institute, 82:13, Jul. 4, 1990, 1107-1112). Briefly, the assay is as follows. TCA-fixed cells were stained for 30 minutes with 0.4% (wt/vol) SRB dissolved in 1% acetic acid. At the end of the staining period, SRB was removed and cultures were quickly rinsed four times with 1% acetic acid to remove unbound dye. The acetic acid was poured directly into the culture wells from a beaker. […] Residual wash solution was removed by sharply flicking plates over a sink, which ensured the complete removal of rinsing solution. […] After being rinsed, the cultures were air dried until no standing moisture was visible. Bound dye was solubilized with 10 mM unbuffered Tris base (pH 10.5) for 5 minutes on a gyratory shaker.
(§5) Optical density (OD) was read in either a UVmax microtiter plate reader (Molecular Devices, Menlo Park, Calif.) or a Beckman DU-70 spectrophotometer. For maximum sensitivity, OD was measured at 564 nm. Because readings were linear with dye concentrations only below 1.8 OD units, however, suboptimal wavelengths were generally used, so that all samples in an experiment remained within the linear OD range. With most cell lines, wavelengths of approximately 490-530 nm worked well for this purpose.
(§6) Nine different non-small cell lung carcinoma cell lines, six different colon carcinoma cell lines, six different CNS (central nervous system) carcinoma cell lines, seven different melanoma cell lines, six different ovarian carcinoma cell lines, and eight different renal carcinoma cell lines were tested.

NCI-H322M = experiment: NCI tumor cell line screen (SRB assay); assay type: cell-based; conditions: Homo sapiens, read-out: PERCENT GROWTH
Description: as §3, §4, §5, §6

HCT-15 = experiment: NCI tumor cell line screen (SRB assay); assay type: cell-based; conditions: Homo sapiens, read-out: PERCENT GROWTH
Description: as §3, §4, §5, §6

[5] = tested on: DU-145 human prostate cancer cells; experiment: Cytotoxicity for prostate cancer cell line DU-145 (MTT assay); assay type: cell-based; conditions: read-out: Percent cell kill; for cytotoxicity at 50 µg/mL: 50 μg/ml; for cytotoxicity at 100 µg/mL: 100 μg/ml; for cytotoxicity at 150 µg/mL: 150 μg/ml
Description: as §1, §2

[6] = tested on: BT-20 human breast cancer cells; experiment: Cytotoxicity for breast cancer cell line BT-20 (MTT assay); assay type: cell-based; conditions: read-out: Percent cell kill; for cytotoxicity at 50 µg/mL: 50 μg/ml; for cytotoxicity at 100 µg/mL: 100 μg/ml; for cytotoxicity at 150 µg/mL: 150 μg/ml
Description: as §1, §2

[7] = Alleviation of depression in HIV-1 positive subjects; assay type: in vivo, human; conditions: 4.3 mg/kg for 15 days; three HIV-1 positive subjects
[8] = 48 h, all concentrations tested

CCCCN1C(=O)CC(=O)N(CCCC)C1=S [Compound C1, 4,6(1H, 5H)-pyrimidinedione, 1,3-dibutyldihydro-2-thioxo]
killing of cells [1, 8]: over 99% | cytotoxicity at 50 µg/mL ([1]; 24 h): 91.3 ± 4.6% | cytotoxicity at 100 µg/mL ([1]; 24 h): 93.3 ± 4.9% | cytotoxicity at 150 µg/mL ([1]; 24 h, 24 hr): 94 ± 4.9% | cytotoxicity at 50 µg/mL ([1]; 48 h): 99.9% | cytotoxicity at 100 µg/mL ([1]; 48 h): 99.9% | cytotoxicity at 150 µg/mL ([1]; 48 h, 48 hr): 99.9% | killing of cells [2, 8]: over 99% | cytotoxicity at 50 µg/mL ([2]; L1210, 24 h, 24 hr): 81.2 ± 4.3% | cytotoxicity at 110 µg/mL ([2]; L1210, 24 h, 24 hr): 93.5 ± 3.1% | cytotoxicity at 150 µg/mL ([2]; L1210, 24 h, 24 hr): 89.2 ± 3.2% | cytotoxicity at 50 µg/mL ([2]; L1210, 48 h, 48 hr): 99% | cytotoxicity at 110 µg/mL ([2]; L1210, 48 h, 48 hr, read-out: % Cytotoxicity): 99.9% | cytotoxicity at 150 µg/mL ([2]; L1210, 48 h, 48 hr): 99.9% | cytotoxicity at 50 µg/mL ([3]; MCF7, 24 h, 24 hr): 39.5 ± 10.5% | cytotoxicity at 100 µg/mL ([3]; MCF7, 24 h, 24 hr): 57.3 ± 1.5% | cytotoxicity at 150 µg/mL ([3]; MCF7, 24 h, 24 hr): 87.8 ± 8.8% | cytotoxicity at 50 µg/mL ([3]; MCF7, 48 h, 48 hr): 67.5 ± 5.3% | cytotoxicity at 100 µg/mL ([3]; MCF7, 48 h, 48 hr): 92.8 ± 4.9% | cytotoxicity at 150 µg/mL ([3]; MCF7, 48 h, 48 hr): 92.3 ± 5.3% | cytotoxicity at 50 µg/mL ([3]; MCF7, 72 h, 72 hr): 85.8 ± 3.8% | cytotoxicity at 100 µg/mL ([3]; MCF7, 72 h, 72 hr): 88 ± 5.4% | cytotoxicity at 150 µg/mL ([3]; MCF7, 72 h, 72 hr): 84.5 ± 5.1% | cytotoxicity at 50 µg/mL ([3]; MCF7, 96 h, 96 hr): 97.8 ± 1.7% | cytotoxicity at 100 µg/mL ([3]; MCF7, 96 h, 96 hr): 97.8 ± 1.7% | cytotoxicity at 150 µg/mL ([3]; MCF7, 96 h, 96 hr): 96.5 ± 2.5% | cytotoxicity at 50 µg/mL ([4]; 24 h, 24 hr): 61.7 ± 10% | cytotoxicity at 100 µg/mL ([4]; 24 h, 24 hr): 88.7 ± 5.5% | cytotoxicity at 150 µg/mL ([4]; 24 h, 24 hr): 90.5 ± 7.1% | cytotoxicity at 50 µg/mL ([4]; 48 h, 48 hr): 91 ± 3.6% | cytotoxicity at 100 µg/mL ([4]; 48 h, 48 hr): 92.7 ± 1.2% | cytotoxicity at 150 µg/mL ([4]; 48 h, 48 hr): 94.9 ± 5.3% | cytotoxicity at 50 µg/mL ([4]; 72 h, 72 hr): 100% | cytotoxicity at 100 µg/mL ([4]; 72 h, 72 hr): 100% | cytotoxicity at 150 µg/mL ([4]; 72 h, 72 hr): 100% | cytotoxicity at 50 µg/mL ([4]; 96 h, 96 hr): 100% | cytotoxicity at 100 µg/mL ([4]; 96 h, 96 hr): 100% | cytotoxicity at 150 µg/mL ([4]; 96 h, 96 hr): > 96% | activity (MALME-3M; 10^-3.0 Molar): -83% | activity at 100 µM (MALME-3M; 10^-4.0 Molar): 81% | activity at 10 µM (MALME-3M; 10^-5.0 Molar): 101% | activity at 1 µM (MALME-3M; 10^-6.0 Molar): 101% | activity at 0.1 µM (MALME-3M; 10^-7.0 Molar): 101% | activity (NCI-H322M; 10^-3.0 Molar): -100% | activity at 100 µM (NCI-H322M; 10^-4.0 Molar): 127% | activity at 10 µM (NCI-H322M; 10^-5.0 Molar): 136% | activity at 1 µM (NCI-H322M; 10^-6.0 Molar): 144% | activity at 0.1 µM (NCI-H322M; 10^-7.0 Molar): 145% | activity at 100 µM (HCT-15; 10^-4.0 Molar): 72% | activity at 10 µM (HCT-15; 10^-5.0 Molar): 102% | activity at 1 µM (HCT-15; 10^-6.0 Molar): 102% | activity at 0.1 µM (HCT-15; 10^-7.0 Molar): 99% | cytotoxicity at 50 µg/mL ([5]; DU-145, 24 h, 24 hr): 0% | cytotoxicity at 100 µg/mL ([5]; DU-145, 24 h, 24 hr): 27.5 ± 6.4% | cytotoxicity at 150 µg/mL ([5]; DU-145, 24 h, 24 hr): 43 ± 2.9% | cytotoxicity at 50 µg/mL ([5]; DU-145, 48 h, 48 hr): 0% | cytotoxicity at 100 µg/mL ([5]; DU-145, 48 h, 48 hr): 52.2 ± 3.4% | cytotoxicity at 150 µg/mL ([5]; DU-145, 48 h, 48 hr): 71 ± 7.3% | cytotoxicity at 50 µg/mL ([5]; DU-145, 72 h, 72 hr): 23.5 ± 4.5% | cytotoxicity at 100 µg/mL ([5]; DU-145, 72 h, 72 hr): 58.7 ± 2.1% | cytotoxicity at 150 µg/mL ([5]; DU-145, 72 h, 72 hr): 78.7 ± 3.4% | cytotoxicity at 50 µg/mL ([5]; DU-145, 96 h, 96 hr): 26.2 ± 5.5% | cytotoxicity at 100 µg/mL ([5]; DU-145, 96 h, 96 hr): 64 ± 4.2% | cytotoxicity at 150 µg/mL ([5]; DU-145, 96 h, 96 hr): 82.5 ± 3.7% | cytotoxicity at 50 µg/mL ([6]; BT-20, 24 h, 24 hr): 43.3 ± 4.1% | cytotoxicity at 100 µg/mL ([6]; BT-20, 24 h, 24 hr): 62 ± 7.9% | cytotoxicity at 150 µg/mL ([6]; BT-20, 24 h, 24 hr): 94 ± 4.2% | cytotoxicity at 50 µg/mL ([6]; BT-20, 48 h, 48 hr): 65.5 ± 2.4% | cytotoxicity at 100 µg/mL ([6]; BT-20, 48 h, 48 hr): 91.3 ± 2.5% | cytotoxicity at 150 µg/mL ([6]; BT-20, 48 h, 48 hr): 96.5 ± 2.4% | cytotoxicity at 50 µg/mL ([6]; BT-20, 72 h, 72 hr): 73.3 ± 2.9% | cytotoxicity at 100 µg/mL ([6]; BT-20, 72 h, 72 hr): 86.8 ± 3.6% | cytotoxicity at 150 µg/mL ([6]; BT-20, 72 h, 72 hr): 86 ± 3.6% | cytotoxicity at 50 µg/mL ([6]; BT-20, 96 h, 96 hr): 100% | cytotoxicity at 100 µg/mL ([6]; BT-20, 96 h, 96 hr): 100% | cytotoxicity at 150 µg/mL ([6]; BT-20, 96 h, 96 hr): 100% | symptoms reported by subjects [7]: alleviation from lethargy, depression and an increased appetite, feeling of being happy, and desire to live
